Reference: ChEMBL document CHEMBL1201862, “PubChem BioAssay data set” (2004)
Calls of active or inactive are those of the source.

Tests used:
HEK293 [1] = experiment: cells; format: functional, cell-based; details: Homo sapiens
HEK293 [2] = experiment: cells; format: functional, cell-based; details: Homo sapiens; remark: listed apart in the source
HEK293 [3] = experiment: inhibition of NOD1-driven NF-kB reporter – cell-based, luminescence, uHTS, primary screen (AID 1578); format: functional; details: Homo sapiens
HEK293 [4] = experiment: NOD2 signaling inhibitors in MDP-stimulated cells, cell-based, uHTS, luminescence (AID 2001); format: functional; details: Homo sapiens
HEK293 [5] = experiment: cells; format: functional, cell-based; details: Homo sapiens; remark: listed apart in the source
[6] = biological target: Nucleotide-binding oligomerization domain-containing protein 2 (Homo sapiens, UniProt Q9HC29); experiment: inhibition of NOD2-driven NF-kB reporter – cell-based, luminescence, uHTS, HEK293 (AID 1566); format: functional
[7] = biological target: Glyceraldehyde-3-phosphate dehydrogenase (Homo sapiens, UniProt P04406)
[8] = biological target: T1, Alkaline phosphatase, tissue-nonspecific isozyme (Homo sapiens, UniProt P05186); experiment: potency against alkaline phosphatase TNAP – biochemical, luminescent, dose response, SAR follow-up (AID 1056)
T1 sequence (P05186 whole entry): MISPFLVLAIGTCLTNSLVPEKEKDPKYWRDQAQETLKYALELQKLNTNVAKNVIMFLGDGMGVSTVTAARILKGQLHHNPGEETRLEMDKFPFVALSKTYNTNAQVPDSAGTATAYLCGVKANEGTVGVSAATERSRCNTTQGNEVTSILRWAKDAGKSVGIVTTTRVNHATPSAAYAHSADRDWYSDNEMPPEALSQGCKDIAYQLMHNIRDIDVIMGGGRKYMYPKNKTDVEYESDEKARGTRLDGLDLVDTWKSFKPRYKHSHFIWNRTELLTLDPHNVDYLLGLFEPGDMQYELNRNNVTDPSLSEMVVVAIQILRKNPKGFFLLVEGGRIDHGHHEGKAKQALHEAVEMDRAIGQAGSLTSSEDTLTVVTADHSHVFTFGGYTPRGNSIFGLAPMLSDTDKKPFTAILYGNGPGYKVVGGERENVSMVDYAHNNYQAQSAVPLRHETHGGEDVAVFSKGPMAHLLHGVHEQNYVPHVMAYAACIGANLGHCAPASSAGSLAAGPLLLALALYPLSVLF

HEK293 [9] = experiment: cells; details: Homo sapiens
[10] = biological target: T2, Nucleotide-binding oligomerization domain-containing protein 1 (Homo sapiens, UniProt Q9Y239); experiment: blockers of NOD1 pathway activity – revised, SAR follow-up (AID 2333); format: functional
T2 sequence (Q9Y239 whole entry): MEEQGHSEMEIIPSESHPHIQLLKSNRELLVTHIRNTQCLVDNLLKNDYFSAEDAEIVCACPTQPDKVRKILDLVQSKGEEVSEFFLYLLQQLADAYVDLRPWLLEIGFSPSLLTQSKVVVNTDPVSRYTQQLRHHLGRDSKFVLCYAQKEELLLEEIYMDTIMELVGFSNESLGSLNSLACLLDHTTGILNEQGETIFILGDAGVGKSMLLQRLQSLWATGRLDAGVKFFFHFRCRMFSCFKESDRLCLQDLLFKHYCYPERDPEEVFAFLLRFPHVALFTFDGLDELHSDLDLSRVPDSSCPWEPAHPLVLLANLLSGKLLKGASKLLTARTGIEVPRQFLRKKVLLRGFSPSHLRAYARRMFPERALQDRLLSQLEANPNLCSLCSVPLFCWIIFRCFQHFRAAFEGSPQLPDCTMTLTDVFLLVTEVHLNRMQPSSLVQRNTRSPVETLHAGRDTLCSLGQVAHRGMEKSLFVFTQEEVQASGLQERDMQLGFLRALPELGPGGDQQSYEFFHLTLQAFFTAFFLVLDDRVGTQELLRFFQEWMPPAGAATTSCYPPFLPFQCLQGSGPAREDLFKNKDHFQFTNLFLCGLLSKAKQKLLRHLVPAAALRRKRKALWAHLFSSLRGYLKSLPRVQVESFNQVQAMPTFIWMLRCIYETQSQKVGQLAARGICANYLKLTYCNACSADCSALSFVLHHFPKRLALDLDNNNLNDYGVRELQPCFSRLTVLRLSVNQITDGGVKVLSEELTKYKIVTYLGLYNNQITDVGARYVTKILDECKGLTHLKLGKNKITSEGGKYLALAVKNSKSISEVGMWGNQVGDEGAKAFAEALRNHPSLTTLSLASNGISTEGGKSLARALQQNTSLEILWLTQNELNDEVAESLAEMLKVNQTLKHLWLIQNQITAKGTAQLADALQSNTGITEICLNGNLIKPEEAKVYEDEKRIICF

Tumor necrosis factor = Tumor necrosis factor (Homo sapiens, UniProt P01375); experiment: analog potency on TNFa NF-kB signaling – cell-based, revised, SAR follow-up (AID 2337); format: functional
[11] = biological target: T3, Rac GTPase-activating protein 1 (Homo sapiens, UniProt Q9H0H5); experiment: blockers of MgcRacGAP-driven Rac1 GTP hydrolysis – biochemical, ADP Hunter fluorescence, primary and confirmatory, confirmation (AID 624330); format: functional
T3 sequence (Q9H0H5 whole entry): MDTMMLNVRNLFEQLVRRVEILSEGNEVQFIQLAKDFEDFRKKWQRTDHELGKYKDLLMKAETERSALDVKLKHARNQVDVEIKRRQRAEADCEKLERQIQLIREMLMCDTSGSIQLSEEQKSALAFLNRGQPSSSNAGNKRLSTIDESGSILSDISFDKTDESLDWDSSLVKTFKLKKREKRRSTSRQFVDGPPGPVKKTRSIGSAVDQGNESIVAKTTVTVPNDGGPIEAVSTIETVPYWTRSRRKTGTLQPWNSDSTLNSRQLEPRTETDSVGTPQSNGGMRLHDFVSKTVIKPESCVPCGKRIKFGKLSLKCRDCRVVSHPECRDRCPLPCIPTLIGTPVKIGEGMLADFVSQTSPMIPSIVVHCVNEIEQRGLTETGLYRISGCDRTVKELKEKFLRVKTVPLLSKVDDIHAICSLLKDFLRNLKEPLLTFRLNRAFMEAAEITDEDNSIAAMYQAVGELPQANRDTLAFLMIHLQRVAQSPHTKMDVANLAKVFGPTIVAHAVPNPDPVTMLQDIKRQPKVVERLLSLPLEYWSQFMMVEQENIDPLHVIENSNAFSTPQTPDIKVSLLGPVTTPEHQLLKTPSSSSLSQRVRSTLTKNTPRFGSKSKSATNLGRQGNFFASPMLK

[12] = biological target: Induced myeloid leukemia cell differentiation protein Mcl-1 (Homo sapiens, UniProt Q07820); format: functional
[13] = biological target: FAD-linked sulfhydryl oxidase ALR (Homo sapiens, UniProt P55789); experiment: ALR-catalysed DTT oxidation blockers – biochemical, H2O2 detection, luminescence, cherry-pick, dose response (AID 493248)
[14] = biological target: T4, Polyadenylate-binding protein 1 (Homo sapiens, UniProt P11940); experiment: MLLE binding blockers, Cy5 peptide tracer – biochemical, fluorescence polarization, Cy5-PAM2 peptide, secondary, miRNA deadenylation inhibitor project, dose response (AID 602260); format: functional; details: read-out: IC50_Mean
[15] = biological target: T4, Polyadenylate-binding protein 1; experiment: MLLE domain peptide-binding blockers, IC50 – biochemical, fluorescence polarization, FITC-PAM2 peptide, dose response (AID 602259); format: functional; details: read-out: IC50_Mean
[16] = biological target: T5, Carboxy-terminal domain RNA polymerase II polypeptide A small phosphatase 1 (Homo sapiens, UniProt Q9GZU7); experiment: CTDSP1 inhibitors, concentration-response, biochemical, absorbance readout, ultra-high-throughput screen actives (AID 540297); format: functional
T5 sequence (Q9GZU7 whole entry): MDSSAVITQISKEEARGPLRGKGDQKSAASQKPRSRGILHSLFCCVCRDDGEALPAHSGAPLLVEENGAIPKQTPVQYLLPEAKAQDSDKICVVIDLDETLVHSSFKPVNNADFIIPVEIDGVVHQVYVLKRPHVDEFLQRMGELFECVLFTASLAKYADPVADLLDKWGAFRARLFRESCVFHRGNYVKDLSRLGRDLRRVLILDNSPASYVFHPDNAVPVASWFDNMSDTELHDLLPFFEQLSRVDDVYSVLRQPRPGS

[17] = test system: Streptococcus sp. 'group A'; experiment: Streptococcus pyogenes SK(-)GAS viability under kanamycin – luminescence, BacTiterGlo, confirmation, counter-screen for streptokinase expression inhibitor project, dose response (AID 1900); format: functional, organism-based
Streptokinase A = biological target: T6, Streptokinase A (Streptococcus pyogenes serotype M1, UniProt P10520); experiment: viability-normalized secreted streptokinase activity reduction – plasminogen activation absorbance, OD405, dose response (AID 1914); format: functional, Streptococcus pyogenes M1 GAS;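 also: secreted streptokinase activity via plasminogen activation per viability signal from cell pellet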
T6 sequence (P10520 whole entry): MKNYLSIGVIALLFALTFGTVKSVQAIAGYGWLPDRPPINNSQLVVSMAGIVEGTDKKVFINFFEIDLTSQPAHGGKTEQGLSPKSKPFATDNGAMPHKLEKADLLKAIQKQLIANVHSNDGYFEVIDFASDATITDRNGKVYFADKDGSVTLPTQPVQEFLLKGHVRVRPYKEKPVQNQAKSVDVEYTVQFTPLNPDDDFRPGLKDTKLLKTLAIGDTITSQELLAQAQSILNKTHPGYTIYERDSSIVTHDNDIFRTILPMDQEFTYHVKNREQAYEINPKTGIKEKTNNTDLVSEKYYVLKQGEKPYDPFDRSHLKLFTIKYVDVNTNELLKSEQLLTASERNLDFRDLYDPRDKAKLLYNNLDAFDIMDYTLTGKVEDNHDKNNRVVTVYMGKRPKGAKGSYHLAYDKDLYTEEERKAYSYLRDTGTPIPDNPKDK

Streptococcus = experiment: GAS UMAA2166 growth inhibition – luminescence, BacTiterGlo, counter-screen for streptokinase expression inhibitor project, dose response (AID 1915); format: functional, organism-based;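 also: potency for reduction of bacterial viability or growth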
Nonstructural protein 1 = Nonstructural protein 1 (Influenza A virus, UniProt Q194T2); format: functional, Influenza A virus (A/California/07/2009(H1N1))
cells = format: functional
[18] = THP-1 cell cytotoxicity, dose response, cytotoxicity control for non-replicating M. tuberculosis project (AID 489025); format: functional
[19] = biological target: T7, Microphthalmia-associated transcription factor (Homo sapiens, UniProt O75030); experiment: reducers of TRPM1 reporter luminescence, concentration series – cell-based, SK-MEL-5, cherry-picked, set 3, MITF inhibitor project, dose response (AID 493073); format: functional;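 also: SK-MEL-5 melanoma cells with luciferase driven by the MITF target TRPM1 promoter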
T7 sequence (O75030 whole entry): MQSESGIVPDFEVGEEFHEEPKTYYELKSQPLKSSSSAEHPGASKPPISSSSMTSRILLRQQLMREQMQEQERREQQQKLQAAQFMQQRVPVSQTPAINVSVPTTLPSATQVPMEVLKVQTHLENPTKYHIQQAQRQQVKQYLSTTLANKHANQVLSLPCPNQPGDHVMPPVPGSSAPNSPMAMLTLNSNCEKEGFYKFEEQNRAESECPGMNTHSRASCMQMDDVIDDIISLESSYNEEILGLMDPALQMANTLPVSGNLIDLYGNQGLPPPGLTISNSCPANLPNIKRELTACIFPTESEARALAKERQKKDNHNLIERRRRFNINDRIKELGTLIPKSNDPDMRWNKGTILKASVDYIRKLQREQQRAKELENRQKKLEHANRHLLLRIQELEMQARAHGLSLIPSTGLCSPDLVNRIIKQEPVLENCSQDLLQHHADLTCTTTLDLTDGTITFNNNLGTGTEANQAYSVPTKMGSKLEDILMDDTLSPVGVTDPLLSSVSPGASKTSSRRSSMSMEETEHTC

Induced myeloid leukemia cell differentiation protein Mcl-1, sequence (Q07820 whole entry): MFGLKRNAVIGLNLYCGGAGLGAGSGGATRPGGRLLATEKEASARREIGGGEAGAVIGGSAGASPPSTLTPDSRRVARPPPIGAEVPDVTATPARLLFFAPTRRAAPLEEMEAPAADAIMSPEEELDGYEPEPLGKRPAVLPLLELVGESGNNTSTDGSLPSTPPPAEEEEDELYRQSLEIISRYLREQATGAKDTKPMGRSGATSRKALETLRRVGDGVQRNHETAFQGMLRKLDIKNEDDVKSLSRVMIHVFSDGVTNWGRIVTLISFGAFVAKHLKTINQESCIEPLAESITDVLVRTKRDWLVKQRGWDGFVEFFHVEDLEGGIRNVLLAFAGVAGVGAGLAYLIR
Glyceraldehyde-3-phosphate dehydrogenase, sequence (P04406 whole entry): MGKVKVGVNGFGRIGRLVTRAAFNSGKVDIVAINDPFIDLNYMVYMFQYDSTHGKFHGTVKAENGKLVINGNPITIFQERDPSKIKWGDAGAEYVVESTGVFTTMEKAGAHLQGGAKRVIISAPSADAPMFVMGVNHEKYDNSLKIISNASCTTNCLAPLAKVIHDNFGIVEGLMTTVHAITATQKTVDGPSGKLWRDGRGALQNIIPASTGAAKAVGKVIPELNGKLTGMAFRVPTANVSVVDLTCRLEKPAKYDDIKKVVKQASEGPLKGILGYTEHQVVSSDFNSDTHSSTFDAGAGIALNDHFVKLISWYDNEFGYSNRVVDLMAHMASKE
Tumor necrosis factor, sequence (P01375 whole entry): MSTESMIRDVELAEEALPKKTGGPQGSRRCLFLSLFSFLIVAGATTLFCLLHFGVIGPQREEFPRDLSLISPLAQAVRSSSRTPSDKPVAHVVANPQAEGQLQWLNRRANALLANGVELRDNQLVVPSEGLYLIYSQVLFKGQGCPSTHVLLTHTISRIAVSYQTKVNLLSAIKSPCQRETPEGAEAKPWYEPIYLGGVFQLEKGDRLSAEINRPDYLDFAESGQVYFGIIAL
Nucleotide-binding oligomerization domain-containing protein 2, sequence (Q9HC29 whole entry, the tested form may be a part): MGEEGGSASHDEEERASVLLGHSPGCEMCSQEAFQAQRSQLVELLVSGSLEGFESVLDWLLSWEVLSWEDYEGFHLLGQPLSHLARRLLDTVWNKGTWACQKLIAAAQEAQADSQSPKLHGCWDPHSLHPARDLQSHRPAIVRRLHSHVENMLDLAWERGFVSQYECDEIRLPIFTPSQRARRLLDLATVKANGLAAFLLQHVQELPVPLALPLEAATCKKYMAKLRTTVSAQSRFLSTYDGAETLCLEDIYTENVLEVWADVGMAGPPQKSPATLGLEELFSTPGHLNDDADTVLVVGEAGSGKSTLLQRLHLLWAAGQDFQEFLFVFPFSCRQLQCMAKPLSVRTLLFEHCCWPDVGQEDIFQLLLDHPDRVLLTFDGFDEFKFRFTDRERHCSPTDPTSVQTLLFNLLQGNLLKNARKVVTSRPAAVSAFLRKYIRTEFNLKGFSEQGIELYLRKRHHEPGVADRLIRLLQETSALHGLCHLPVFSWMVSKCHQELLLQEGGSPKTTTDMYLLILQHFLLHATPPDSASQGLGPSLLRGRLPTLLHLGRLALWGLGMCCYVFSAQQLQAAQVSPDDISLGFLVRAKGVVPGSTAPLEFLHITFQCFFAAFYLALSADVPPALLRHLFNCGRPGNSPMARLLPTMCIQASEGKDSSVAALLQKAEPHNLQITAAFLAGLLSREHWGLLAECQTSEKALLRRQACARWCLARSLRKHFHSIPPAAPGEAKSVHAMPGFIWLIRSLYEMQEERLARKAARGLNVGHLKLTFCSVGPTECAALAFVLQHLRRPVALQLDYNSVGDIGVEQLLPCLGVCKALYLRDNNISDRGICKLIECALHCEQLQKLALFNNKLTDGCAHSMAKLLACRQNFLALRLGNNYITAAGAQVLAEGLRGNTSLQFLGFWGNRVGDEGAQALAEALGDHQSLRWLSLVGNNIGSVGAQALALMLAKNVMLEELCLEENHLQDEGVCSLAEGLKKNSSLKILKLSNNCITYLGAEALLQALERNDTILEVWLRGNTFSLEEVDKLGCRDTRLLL
T4 sequence (P11940 whole entry, the tested form may be a part): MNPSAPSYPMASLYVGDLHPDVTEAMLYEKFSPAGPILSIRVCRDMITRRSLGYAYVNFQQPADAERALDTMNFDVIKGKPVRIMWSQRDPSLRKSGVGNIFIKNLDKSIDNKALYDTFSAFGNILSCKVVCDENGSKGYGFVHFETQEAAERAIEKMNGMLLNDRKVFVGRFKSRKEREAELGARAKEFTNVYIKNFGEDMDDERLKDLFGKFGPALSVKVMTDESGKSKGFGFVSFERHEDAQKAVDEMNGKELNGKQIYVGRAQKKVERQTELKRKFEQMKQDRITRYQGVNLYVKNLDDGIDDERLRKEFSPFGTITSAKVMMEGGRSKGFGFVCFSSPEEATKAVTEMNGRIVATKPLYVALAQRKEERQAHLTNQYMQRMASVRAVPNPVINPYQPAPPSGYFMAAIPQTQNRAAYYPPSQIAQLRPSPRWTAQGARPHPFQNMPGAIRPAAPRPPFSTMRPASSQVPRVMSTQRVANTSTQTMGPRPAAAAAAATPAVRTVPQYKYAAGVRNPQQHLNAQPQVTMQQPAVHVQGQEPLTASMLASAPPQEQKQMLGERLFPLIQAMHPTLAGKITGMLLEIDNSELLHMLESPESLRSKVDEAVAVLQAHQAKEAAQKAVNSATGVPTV
Nonstructural protein 1, sequence (Q194T2 whole entry): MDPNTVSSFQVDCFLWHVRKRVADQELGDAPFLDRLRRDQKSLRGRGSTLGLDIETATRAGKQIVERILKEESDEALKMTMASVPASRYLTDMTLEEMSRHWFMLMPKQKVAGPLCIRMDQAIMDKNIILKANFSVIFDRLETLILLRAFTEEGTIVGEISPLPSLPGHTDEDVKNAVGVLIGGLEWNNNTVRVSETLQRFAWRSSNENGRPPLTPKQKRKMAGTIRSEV
FAD-linked sulfhydryl oxidase ALR, sequence (P55789 whole entry): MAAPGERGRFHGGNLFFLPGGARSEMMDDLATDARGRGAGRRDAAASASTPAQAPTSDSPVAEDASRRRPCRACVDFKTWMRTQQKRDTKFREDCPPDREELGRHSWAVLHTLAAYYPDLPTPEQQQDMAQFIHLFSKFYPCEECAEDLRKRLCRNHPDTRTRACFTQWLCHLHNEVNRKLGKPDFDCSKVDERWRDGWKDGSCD

CCc1nnc(NC(=O)c2ccc(Cl)c(S(=O)(=O)N3CCc4ccccc4C3)c2)s1
IC50 (HEK293 [1]): 15.5 µM (active) | IC50 (HEK293 [2]): 17 µM (active) | EC50 (HEK293 [3]): 2.1 µM (active) | IC50 (HEK293 [4]): 4.3 µM (active) | IC50 (HEK293 [5]): 5.23 µM (active) | EC50 [6]: 5.23 µM (active)

O=S(=O)(Nc1cccnc1)c1ccccc1
IC50 [7]: > 100 µM (not active) | IC50 [8]: > 100 µM (inactive)

CCOc1ccc(NC(=O)c2ccc(CN3CCc4ccccc43)cc2)cc1
IC50 (HEK293 [9]): > 20 µM (inactive) | IC50 [10]: > 20 µM (inactive) | IC50 (Tumor necrosis factor): > 20 µM (inactive)

CCN(CC)c1ccc(/C=N/N2CCN(Cc3ccccc3)CC2)cc1
IC50 [11]: 78.7 µM (active) | IC50 [12]: 11.5 µM (not active)

Oc1ccc(/C=N/n2cc(-c3ccccc3)nc2S)cc1
AC50 [13]: 0.86 µM (active) | IC50 [14]: > 66 µM (inactive) | IC50 [11]: 101 µM (active) | IC50 [15]: > 66 µM (inactive) | IC50 [12]: 16.5 µM (active)

COc1ccc(OC)c(NC(=O)c2cnc3ccccc3c2)c1
IC50 [7]: > 10 µM (inconclusive) | IC50 [8]: > 10 µM (inactive)

COc1cccc(C(=O)Nc2sc3c(c2C(=O)O)CCCC3)c1
IC50 (HEK293 [1]): > 20 µM (inactive) | IC50 (HEK293 [2]): > 20 µM (inactive) | EC50 (HEK293 [3]): > 20 µM (inactive) | IC50 (HEK293 [4]): > 20 µM (inactive) | IC50 (HEK293 [5]): > 20 µM (inactive) | IC50 (HEK293 [9]): > 20 µM (inactive) | IC50 [10]: 1.76 µM (active) | IC50 (Tumor necrosis factor): > 20 µM (inactive) | EC50 [6]: > 20 µM (inactive)

O=C(CSc1nnc(COc2ccccc2Cl)o1)NC(=O)NCc1ccco1
IC50 [12]: 6.9 µM (active) | IC50 [16]: 5.93 µM (active)

CC1Oc2cc3c(-c4c(O)cc(O)c5c(O)c6c(cc45)OC(C)C(C)C6=O)c(O)cc(O)c3c(O)c2C(=O)C1C (configuration not stated)
EC50 [17]: 0.324 µM (active) | EC50 (Streptokinase A): 1.74 µM (active) | IC50 [12]: 2.15 µM (active) | EC50 (Streptococcus): 0.967 µM (active) | IC50 (Nonstructural protein 1): 29.4 µM (active)

COc1ccc(OC)c(NC(=O)c2cccnc2)c1
IC50 [7]: > 100 µM (not active) | IC50 [8]: > 100 µM (inactive)

Cc1nccn1-c1cccnc1
IC50 [7]: > 100 µM (not active) | IC50 [8]: > 100 µM (inactive)

O=C(Nc1ccccc1)c1n[nH]c2c1COc1ccccc1-2
IC50 [7]: > 100 µM (not active) | IC50 [8]: > 100 µM (inactive)

N#Cc1ccc(-c2ccc(OCC(=O)Nc3cccnc3)cc2)cc1
IC50 (cells): 1.63 µM (active) | CC50 [18]: 10.8 µM (active)

O=C(N/N=C/c1ccc([N+](=O)[O-])s1)c1ccccc1
AC50 [19]: 2.29 µM (active) | IC50 (cells): 10.3 µM (active) | CC50 [18]: 33.3 µM (active)
